Results reported in PubChem BioAssay (NCI).
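All cell lines were grown in 96-well plates and treated with compound for 48 hours. At the GI50, growth is halved. Definition used: TGI = concentration required for complete inhibition of growth.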

Columns and labels:
Assay in all cases: inhibition of tumour cell growth, NCI panel, 48 h
786-0 renal = tested on: 786-0 renal
A498 renal = tested on: A498 renal
A549 NSCLC = tested on: A549 NSCLC
ACHN renal = tested on: ACHN renal
BT-549 breast = tested on: BT-549 breast
CAKI-1 renal = tested on: CAKI-1 renal
CCRF-CEM leukemia = tested on: CCRF-CEM leukemia
COLO 205 colon = tested on: COLO 205 colon
DU-145 prostate = tested on: DU-145 prostate
EKVX NSCLC = tested on: EKVX NSCLC
HCC-2998 colon = tested on: HCC-2998 colon
HCT-116 colon = tested on: HCT-116 colon
HCT-15 colon = tested on: HCT-15 colon
HL-60(TB) leukemia = tested on: HL-60(TB) leukemia
HOP-62 NSCLC = tested on: HOP-62 NSCLC
HOP-92 NSCLC = tested on: HOP-92 NSCLC
HS 578T breast = tested on: HS 578T breast
HT29 colon = tested on: HT29 colon
IGROV1 ovarian = tested on: IGROV1 ovarian
K-562 leukemia = tested on: K-562 leukemia
KM12 colon = tested on: KM12 colon
LOX IMVI melanoma = tested on: LOX IMVI melanoma
M14 melanoma = tested on: M14 melanoma
MALME-3M melanoma = tested on: MALME-3M melanoma
MCF7 breast = tested on: MCF7 breast
MDA-MB-231 breast = tested on: MDA-MB-231 breast
MDA-MB-435 = tested on: MDA-MB-435
MOLT-4 leukemia = tested on: MOLT-4 leukemia
NCI-H226 lung = tested on: NCI-H226 lung
NCI-H23 lung = tested on: NCI-H23 lung
NCI-H460 lung = tested on: NCI-H460 lung
NCI-H522 lung = tested on: NCI-H522 lung
NCI/ADR-RES ovarian = tested on: NCI/ADR-RES ovarian
OVCAR-3 ovarian = tested on: OVCAR-3 ovarian
OVCAR-4 ovarian = tested on: OVCAR-4 ovarian
OVCAR-5 ovarian = tested on: OVCAR-5 ovarian
OVCAR-8 ovarian = tested on: OVCAR-8 ovarian
PC-3 prostate = tested on: PC-3 prostate
RPMI-8226 leukemia = tested on: RPMI-8226 leukemia
RXF 393 renal = tested on: RXF 393 renal
SF-268 CNS = tested on: SF-268 CNS
SF-295 CNS = tested on: SF-295 CNS
SF-539 CNS = tested on: SF-539 CNS
SK-MEL-2 melanoma = tested on: SK-MEL-2 melanoma
SK-MEL-28 melanoma = tested on: SK-MEL-28 melanoma
SK-MEL-5 melanoma = tested on: SK-MEL-5 melanoma
SNB-19 CNS = tested on: SNB-19 CNS
SNB-75 CNS = tested on: SNB-75 CNS
SR leukemia = tested on: SR leukemia
SW-620 colon = tested on: SW-620 colon
T-47D breast = tested on: T-47D breast
TK-10 renal = tested on: TK-10 renal
U251 CNS = tested on: U251 CNS
UACC-257 melanoma = tested on: UACC-257 melanoma
UACC-62 melanoma = tested on: UACC-62 melanoma
UO-31 renal = tested on: UO-31 renal
SK-OV-3 ovarian = tested on: SK-OV-3 ovarian
SN12C renal = tested on: SN12C renal

`Oc1c(-c2ccccc2)sc2ccccc12` showed a TGI (786-0 renal) of 59 µM, a TGI (A498 renal) of 88.4 µM and a TGI (A549 NSCLC) of 81.4 µM. It also gave a TGI (ACHN renal) greater than 100 µM, a TGI (BT-549 breast) of 89.4 µM and a TGI (CAKI-1 renal) of 13.6 µM. It also gave a TGI (CCRF-CEM leukemia) of 62.5 µM, a TGI (COLO 205 colon) of 28.2 µM and a TGI (DU-145 prostate) of 59.5 µM. The TGI (EKVX NSCLC) was 86.6 µM, the TGI (HCC-2998 colon) was 39 µM and the TGI (HCT-116 colon) was 71 µM. For the same compound, the TGI (HCT-15 colon) was greater than 100 µM, the TGI (HL-60(TB) leukemia) was 45.4 µM and the TGI (HOP-62 NSCLC) was 45.8 µM. The TGI (HOP-92 NSCLC) was 57.7 µM, the TGI (HS 578T breast) was greater than 100 µM and the TGI (HT29 colon) was 81.6 µM. For the same compound, the TGI (IGROV1 ovarian) was greater than 100 µM, the TGI (K-562 leukemia) was 67.5 µM and the TGI (KM12 colon) was 75.6 µM. The TGI (LOX IMVI melanoma) was 32.3 µM, the TGI (M14 melanoma) was 50.6 µM and the TGI (MALME-3M melanoma) was 59.6 µM. It also gave a TGI (MCF7 breast) of 65.8 µM, a TGI (MDA-MB-231 breast) of 29.1 µM and a TGI (MDA-MB-435) greater than 100 µM. The TGI (MOLT-4 leukemia) was 88.6 µM, the TGI (NCI-H226 lung) was 64.4 µM and the TGI (NCI-H23 lung) was 77.5 µM. For the same compound, the TGI (NCI-H460 lung) was 51.2 µM, the TGI (NCI-H522 lung) was greater than 100000 nM and the TGI (NCI/ADR-RES ovarian) was greater than 100 µM. The TGI (OVCAR-3 ovarian) was 36.2 µM, the TGI (OVCAR-4 ovarian) was greater than 100 µM and the TGI (OVCAR-5 ovarian) was 90.3 µM. The TGI (OVCAR-8 ovarian) was greater than 100 µM, the TGI (PC-3 prostate) was 69.1 µM and the TGI (RPMI-8226 leukemia) was 43.5 µM. It also gave a TGI (RXF 393 renal) of 45.1 µM, a TGI (SF-268 CNS) greater than 100 µM and a TGI (SF-295 CNS) of 45.7 µM. The TGI (SF-539 CNS) was greater than 100000 nM, the TGI (SK-MEL-2 melanoma) was 41 µM and the TGI (SK-MEL-28 melanoma) was greater than 100 µM. For the same compound, the TGI (SK-MEL-5 melanoma) was 54.5 µM, the TGI (SNB-19 CNS) was greater than 100 µM and the TGI (SNB-75 CNS) was 52.1 µM. It also gave a TGI (SR leukemia) of 34.9 µM, a TGI (SW-620 colon) greater than 100 µM and a TGI (T-47D breast) of 54.4 µM. For the same compound, the TGI (TK-10 renal) was greater than 100 µM, the TGI (U251 CNS) was greater than 100000 nM and the TGI (UACC-257 melanoma) was 98.9 µM. For the same compound, the TGI (UACC-62 melanoma) was greater than 100 µM and the TGI (UO-31 renal) was 84.6 µM.
Compound `COc1ccc(-c2nn(-c3cccc(NC(=O)Nc4cc(C(F)(F)F)cc(C(F)(F)F)c4)c3)cc2-c2ccncc2)cc1Cl` has a GI50 (786-0 renal) of 976 nM, a TGI (786-0 renal) of 2.74 µM and a GI50 (A498 renal) of 507 nM. The TGI (A498 renal) was 3.17 µM, the GI50 (A549 NSCLC) was 1070 nM and the TGI (A549 NSCLC) was 7.6 µM. It also gave a GI50 (ACHN renal) of 1140 nM, a TGI (ACHN renal) of 50 µM and a GI50 (BT-549 breast) of 1350 nM. It also gave a TGI (BT-549 breast) of 4.59 µM, a GI50 (CAKI-1 renal) of 1070 nM and a TGI (CAKI-1 renal) of 9.44 µM. It also gave a GI50 (CCRF-CEM leukemia) of 962 nM, a TGI (CCRF-CEM leukemia) of 3.11 µM and a GI50 (COLO 205 colon) of 894 nM. The TGI (COLO 205 colon) was 1.74 µM, the GI50 (DU-145 prostate) was 1960 nM and the TGI (DU-145 prostate) was 9.76 µM. It also gave a GI50 (HCC-2998 colon) of 2020 nM, a TGI (HCC-2998 colon) of 9.18 µM and a GI50 (HCT-116 colon) of 649 nM. It also gave a TGI (HCT-116 colon) of 2.17 µM, a GI50 (HCT-15 colon) of 962 nM and a TGI (HCT-15 colon) of 4.08 µM. It also gave a GI50 (HL-60(TB) leukemia) of 1240 nM, a TGI (HL-60(TB) leukemia) of 3.63 µM and a GI50 (HOP-62 NSCLC) of 1090 nM. The TGI (HOP-62 NSCLC) was 3.29 µM, the GI50 (HOP-92 NSCLC) was 170 nM and the TGI (HOP-92 NSCLC) was 1.33 µM. It also gave a GI50 (HS 578T breast) of 1170 nM, a TGI (HS 578T breast) of 5.52 µM and a GI50 (HT29 colon) of 1290 nM. It also gave a TGI (HT29 colon) of 5.75 µM, a GI50 (IGROV1 ovarian) of 2080 nM and a TGI (IGROV1 ovarian) of 31.6 µM. The GI50 (K-562 leukemia) was 1050 nM, the TGI (K-562 leukemia) was 10 µM and the GI50 (KM12 colon) was 1090 nM. The TGI (KM12 colon) was 4.17 µM, the GI50 (LOX IMVI melanoma) was 1510 nM and the TGI (LOX IMVI melanoma) was 5.64 µM. The GI50 (M14 melanoma) was 913 nM, the TGI (M14 melanoma) was 2.51 µM and the GI50 (MALME-3M melanoma) was 1230 nM. The TGI (MALME-3M melanoma) was 4.2 µM, the GI50 (MCF7 breast) was 1010 nM and the TGI (MCF7 breast) was 5.98 µM. The GI50 (MDA-MB-231 breast) was 850 nM, the TGI (MDA-MB-231 breast) was 2.12 µM and the GI50 (MDA-MB-435) was 959 nM. It also gave a TGI (MDA-MB-435) of 3.12 µM, a GI50 (MOLT-4 leukemia) of 1200 nM and a TGI (MOLT-4 leukemia) of 4 µM. It also gave a GI50 (NCI-H226 lung) of 1330 nM, a TGI (NCI-H226 lung) of 6.35 µM and a GI50 (NCI-H23 lung) of 1410 nM. For the same compound, the TGI (NCI-H23 lung) was 8.22 µM, the GI50 (NCI-H460 lung) was 872 nM and the TGI (NCI-H460 lung) was 4.9 µM. It also gave a GI50 (NCI-H522 lung) of 837 nM, a TGI (NCI-H522 lung) of 2640 nM and a GI50 (NCI/ADR-RES ovarian) of 1250 nM. It also gave a TGI (NCI/ADR-RES ovarian) of 13.3 µM, a GI50 (OVCAR-3 ovarian) of 680 nM and a TGI (OVCAR-3 ovarian) of 4.56 µM. For the same compound, the GI50 (OVCAR-4 ovarian) was 1100 nM, the TGI (OVCAR-4 ovarian) was 4.86 µM and the GI50 (OVCAR-5 ovarian) was 1400 nM. It also gave a TGI (OVCAR-5 ovarian) of 9.17 µM, a GI50 (OVCAR-8 ovarian) of 1130 nM and a TGI (OVCAR-8 ovarian) of 22.5 µM. It also gave a GI50 (PC-3 prostate) of 448 nM, a TGI (PC-3 prostate) of 2.92 µM and a GI50 (RPMI-8226 leukemia) of 540 nM. It also gave a TGI (RPMI-8226 leukemia) of 2.68 µM, a GI50 (RXF 393 renal) of 849 nM and a TGI (RXF 393 renal) of 2.4 µM. It also gave a GI50 (SF-268 CNS) of 1590 nM, a TGI (SF-268 CNS) of 8.68 µM and a GI50 (SF-295 CNS) of 1010 nM. It also gave a TGI (SF-295 CNS) of 3.36 µM, a GI50 (SF-539 CNS) of 880 nM and a TGI (SF-539 CNS) of 2250 nM. For the same compound, the GI50 (SK-MEL-2 melanoma) was 1230 nM, the TGI (SK-MEL-2 melanoma) was 2.8 µM and the GI50 (SK-MEL-28 melanoma) was 1140 nM. The TGI (SK-MEL-28 melanoma) was 4.18 µM, the GI50 (SK-MEL-5 melanoma) was 827 nM and the TGI (SK-MEL-5 melanoma) was 1.7 µM. For the same compound, the GI50 (SK-OV-3 ovarian) was 1520 nM, the TGI (SK-OV-3 ovarian) was 7.38 µM and the GI50 (SN12C renal) was 1270 nM. It also gave a TGI (SN12C renal) of 7.95 µM, a GI50 (SNB-19 CNS) of 1620 nM and a TGI (SNB-19 CNS) of 18.2 µM. The GI50 (SNB-75 CNS) was 813 nM, the TGI (SNB-75 CNS) was 4.18 µM and the GI50 (SR leukemia) was 1020 nM. The TGI (SR leukemia) was 3.13 µM, the GI50 (SW-620 colon) was 1350 nM and the TGI (SW-620 colon) was 6.5 µM. For the same compound, the GI50 (T-47D breast) was 1070 nM, the TGI (T-47D breast) was 7.17 µM and the GI50 (TK-10 renal) was 1670 nM. The TGI (TK-10 renal) was 10.9 µM, the GI50 (U251 CNS) was 731 nM and the TGI (U251 CNS) was 1730 nM. For the same compound, the GI50 (UACC-257 melanoma) was 1070 nM, the TGI (UACC-257 melanoma) was 3.74 µM and the GI50 (UACC-62 melanoma) was 948 nM. For the same compound, the TGI (UACC-62 melanoma) was 3.11 µM, the GI50 (UO-31 renal) was 799 nM and the TGI (UO-31 renal) was 7.32 µM.
